{"source": "PubChem BioAssay AID1963432", "about": "(Molecular Pharmacology Branch, DTP, NCI, 2024)", "tested_on": "SYO-1 complex spheroid growth, percent test/control", "test": "Anticancer human tumor SYO-1 cell line growth inhibition [Asc];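 on all read-outs here: compound exposure lasted 7 days after spheroids grew 3 days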;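 on viability, T/C: 100% = DMSO vehicle control viability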", "conditions": "for IC50: curve of first compound; for viability, T/C: stronger effect = lower value", "outline": "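Complex spheroids combining tumor cells with HUVEC endothelial cells and human MSCs, at 37 degrees C, 5% CO2; agents tested alone or combined, half-log dilutions from at or near clinical Cmax, or 10 microM if Cmax unknown.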"}
{"smiles": "C#Cc1c(F)ccc2cc(O)cc(-c3ncc4c(N5CC6CCC(C5)N6)nc(OCC56CCCN5CC(F)C6)nc4c3F)c12", "note": "(centres undefined) + CNC(C)C(=O)NC1CN(S(=O)(=O)c2cccc(S(=O)(=O)N3CCC4CCC(C(=O)NC(c5ccccc5)c5ccccc5)N4C(=O)C(NC(=O)C(C)NC)C3)c2)CCC2CCC(C(=O)NC(c3ccccc3)c3ccccc3)N2C1=O", "values": [{"measurement": "IC50", "setting": "second compound 0.00316 µM", "result": "> 10", "unit": "µM"}, {"measurement": "IC50", "setting": "second compound 0.01 µM", "result": "> 10", "unit": "µM"}, {"measurement": "IC50", "setting": "second compound 0.0316 µM", "result": "> 10", "unit": "µM"}, {"measurement": "IC50", "setting": "second compound 0.1 µM", "result": "> 10", "unit": "µM"}, {"measurement": "IC50", "setting": "second compound 0.316 µM", "result": "> 10", "unit": "µM"}, {"measurement": "IC50", "setting": "second compound 1 µM", "result": "> 10", "unit": "µM"}, {"measurement": "viability, T/C", "setting": "second compound 0.00316 µM, first compound 0.0316 µM", "result": 106, "unit": "%"}, {"measurement": "viability, T/C", "setting": "second compound 0.00316 µM, first compound 0.1 µM", "result": 102, "unit": "%"}, {"measurement": "viability, T/C", "setting": "second compound 0.00316 µM, first compound 0.316 µM", "result": 101, "unit": "%"}, {"measurement": "viability, T/C", "setting": "second compound 0.00316 µM, first compound 1 µM", "result": 103, "unit": "%"}, {"measurement": "viability, T/C", "setting": "second compound 0.00316 µM, first compound 3.16 µM", "result": 110, "unit": "%"}, {"measurement": "viability, T/C", "setting": "second compound 0.00316 µM, first compound 10 µM", "result": 106, "unit": "%"}, {"measurement": "viability, T/C", "setting": "second compound 0.01 µM, first compound 0.0316 µM", "result": 104, "unit": "%"}, {"measurement": "viability, T/C", "setting": "second compound 0.01 µM, first compound 0.1 µM", "result": 93.3, "unit": "%"}, {"measurement": "viability, T/C", "setting": "second compound 0.01 µM, first compound 0.316 µM", "result": 102, "unit": "%"}, {"measurement": "viability, T/C", "setting": "second compound 0.01 µM, first compound 1 µM", "result": 108, "unit": "%"}, {"measurement": "viability, T/C", "setting": "second compound 0.01 µM, first compound 3.16 µM", "result": 112, "unit": "%"}, {"measurement": "viability, T/C", "setting": "second compound 0.01 µM, first compound 10 µM", "result": 105, "unit": "%"}, {"measurement": "viability, T/C", "setting": "second compound 0.0316 µM, first compound 0.0316 µM", "result": 96.8, "unit": "%"}, {"measurement": "viability, T/C", "setting": "second compound 0.0316 µM, first compound 0.1 µM", "result": 106, "unit": "%"}, {"measurement": "viability, T/C", "setting": "second compound 0.0316 µM, first compound 0.316 µM", "result": 101, "unit": "%"}, {"measurement": "viability, T/C", "setting": "second compound 0.0316 µM, first compound 1 µM", "result": 106, "unit": "%"}, {"measurement": "viability, T/C", "setting": "second compound 0.0316 µM, first compound 3.16 µM", "result": 106, "unit": "%"}, {"measurement": "viability, T/C", "setting": "second compound 0.0316 µM, first compound 10 µM", "result": 106, "unit": "%"}, {"measurement": "viability, T/C", "setting": "second compound 0.1 µM, first compound 0.0316 µM", "result": 111, "unit": "%"}, {"measurement": "viability, T/C", "setting": "second compound 0.1 µM, first compound 0.1 µM", "result": 97.5, "unit": "%"}, {"measurement": "viability, T/C", "setting": "second compound 0.1 µM, first compound 0.316 µM", "result": 105, "unit": "%"}, {"measurement": "viability, T/C", "setting": "second compound 0.1 µM, first compound 1 µM", "result": 111, "unit": "%"}, {"measurement": "viability, T/C", "setting": "second compound 0.1 µM, first compound 3.16 µM", "result": 120, "unit": "%"}, {"measurement": "viability, T/C", "setting": "second compound 0.1 µM, first compound 10 µM", "result": 99.6, "unit": "%"}, {"measurement": "viability, T/C", "setting": "second compound 0.316 µM, first compound 0.0316 µM", "result": 98.7, "unit": "%"}, {"measurement": "viability, T/C", "setting": "second compound 0.316 µM, first compound 0.1 µM", "result": 99.1, "unit": "%"}, {"measurement": "viability, T/C", "setting": "second compound 0.316 µM, first compound 0.316 µM", "result": 108, "unit": "%"}, {"measurement": "viability, T/C", "setting": "second compound 0.316 µM, first compound 1 µM", "result": 108, "unit": "%"}, {"measurement": "viability, T/C", "setting": "second compound 0.316 µM, first compound 3.16 µM", "result": 116, "unit": "%"}, {"measurement": "viability, T/C", "setting": "second compound 0.316 µM, first compound 10 µM", "result": 102, "unit": "%"}, {"measurement": "viability, T/C", "setting": "second compound 1 µM, first compound 0.0316 µM", "result": 99.7, "unit": "%"}, {"measurement": "viability, T/C", "setting": "second compound 1 µM, first compound 0.1 µM", "result": 106, "unit": "%"}, {"measurement": "viability, T/C", "setting": "second compound 1 µM, first compound 0.316 µM", "result": 106, "unit": "%"}, {"measurement": "viability, T/C", "setting": "second compound 1 µM, first compound 1 µM", "result": 103, "unit": "%"}, {"measurement": "viability, T/C", "setting": "second compound 1 µM, first compound 3.16 µM", "result": 106, "unit": "%"}, {"measurement": "viability, T/C", "setting": "second compound 1 µM, first compound 10 µM", "result": 105, "unit": "%"}]}
{"smiles": "Cc1nc(N2CCC3(CC2)COC(C)C3N)c(CO)nc1Sc1ccnc(N)c1Cl", "note": "(centres undefined) + CNC(C)C(=O)NC1CN(S(=O)(=O)c2cccc(S(=O)(=O)N3CCC4CCC(C(=O)NC(c5ccccc5)c5ccccc5)N4C(=O)C(NC(=O)C(C)NC)C3)c2)CCC2CCC(C(=O)NC(c3ccccc3)c3ccccc3)N2C1=O", "values": [{"measurement": "IC50", "setting": "second compound 0.00316 µM", "result": "> 3", "unit": "µM"}, {"measurement": "IC50", "setting": "second compound 0.01 µM", "result": "> 3", "unit": "µM"}, {"measurement": "IC50", "setting": "second compound 0.0316 µM", "result": "> 3", "unit": "µM"}, {"measurement": "IC50", "setting": "second compound 0.1 µM", "result": "> 3", "unit": "µM"}, {"measurement": "IC50", "setting": "second compound 0.316 µM", "result": "> 3", "unit": "µM"}, {"measurement": "IC50", "setting": "second compound 1 µM", "result": "> 3", "unit": "µM"}, {"measurement": "viability, T/C", "setting": "second compound 0.00316 µM, first compound 0.00949 µM", "result": 107, "unit": "%"}, {"measurement": "viability, T/C", "setting": "second compound 0.00316 µM, first compound 0.03 µM", "result": 105, "unit": "%"}, {"measurement": "viability, T/C", "setting": "second compound 0.00316 µM, first compound 0.0949 µM", "result": 109, "unit": "%"}, {"measurement": "viability, T/C", "setting": "second compound 0.00316 µM, first compound 0.3 µM", "result": 96.5, "unit": "%"}, {"measurement": "viability, T/C", "setting": "second compound 0.00316 µM, first compound 0.949 µM", "result": 106, "unit": "%"}, {"measurement": "viability, T/C", "setting": "second compound 0.00316 µM, first compound 3 µM", "result": 102, "unit": "%"}, {"measurement": "viability, T/C", "setting": "second compound 0.01 µM, first compound 0.00949 µM", "result": 105, "unit": "%"}, {"measurement": "viability, T/C", "setting": "second compound 0.01 µM, first compound 0.03 µM", "result": 95.8, "unit": "%"}, {"measurement": "viability, T/C", "setting": "second compound 0.01 µM, first compound 0.0949 µM", "result": 101, "unit": "%"}, {"measurement": "viability, T/C", "setting": "second compound 0.01 µM, first compound 0.3 µM", "result": 105, "unit": "%"}, {"measurement": "viability, T/C", "setting": "second compound 0.01 µM, first compound 0.949 µM", "result": 110, "unit": "%"}, {"measurement": "viability, T/C", "setting": "second compound 0.01 µM, first compound 3 µM", "result": 105, "unit": "%"}, {"measurement": "viability, T/C", "setting": "second compound 0.0316 µM, first compound 0.00949 µM", "result": 111, "unit": "%"}, {"measurement": "viability, T/C", "setting": "second compound 0.0316 µM, first compound 0.03 µM", "result": 104, "unit": "%"}, {"measurement": "viability, T/C", "setting": "second compound 0.0316 µM, first compound 0.0949 µM", "result": 102, "unit": "%"}, {"measurement": "viability, T/C", "setting": "second compound 0.0316 µM, first compound 0.3 µM", "result": 106, "unit": "%"}, {"measurement": "viability, T/C", "setting": "second compound 0.0316 µM, first compound 0.949 µM", "result": 115, "unit": "%"}, {"measurement": "viability, T/C", "setting": "second compound 0.0316 µM, first compound 3 µM", "result": 108, "unit": "%"}, {"measurement": "viability, T/C", "setting": "second compound 0.1 µM, first compound 0.00949 µM", "result": 109, "unit": "%"}, {"measurement": "viability, T/C", "setting": "second compound 0.1 µM, first compound 0.03 µM", "result": 103, "unit": "%"}, {"measurement": "viability, T/C", "setting": "second compound 0.1 µM, first compound 0.0949 µM", "result": 104, "unit": "%"}, {"measurement": "viability, T/C", "setting": "second compound 0.1 µM, first compound 0.3 µM", "result": 116, "unit": "%"}, {"measurement": "viability, T/C", "setting": "second compound 0.1 µM, first compound 0.949 µM", "result": 110, "unit": "%"}, {"measurement": "viability, T/C", "setting": "second compound 0.1 µM, first compound 3 µM", "result": 110, "unit": "%"}, {"measurement": "viability, T/C", "setting": "second compound 0.316 µM, first compound 0.00949 µM", "result": 105, "unit": "%"}, {"measurement": "viability, T/C", "setting": "second compound 0.316 µM, first compound 0.03 µM", "result": 107, "unit": "%"}, {"measurement": "viability, T/C", "setting": "second compound 0.316 µM, first compound 0.0949 µM", "result": 108, "unit": "%"}, {"measurement": "viability, T/C", "setting": "second compound 0.316 µM, first compound 0.3 µM", "result": 107, "unit": "%"}, {"measurement": "viability, T/C", "setting": "second compound 0.316 µM, first compound 0.949 µM", "result": 119, "unit": "%"}, {"measurement": "viability, T/C", "setting": "second compound 0.316 µM, first compound 3 µM", "result": 102, "unit": "%"}, {"measurement": "viability, T/C", "setting": "second compound 1 µM, first compound 0.00949 µM", "result": 103, "unit": "%"}, {"measurement": "viability, T/C", "setting": "second compound 1 µM, first compound 0.03 µM", "result": 109, "unit": "%"}, {"measurement": "viability, T/C", "setting": "second compound 1 µM, first compound 0.0949 µM", "result": 104, "unit": "%"}, {"measurement": "viability, T/C", "setting": "second compound 1 µM, first compound 0.3 µM", "result": 103, "unit": "%"}, {"measurement": "viability, T/C", "setting": "second compound 1 µM, first compound 0.949 µM", "result": 115, "unit": "%"}, {"measurement": "viability, T/C", "setting": "second compound 1 µM, first compound 3 µM", "result": 107, "unit": "%"}]}
